From ChEMBL document CHEMBL1146640, “A new 2-carbamoyl pteridine that inhibits mycobacterial FtsZ” (2004)
≈ marks a conversion by molar mass, not a printed value.

Columns and labels:
[1] = tested on: Mycobacterium tuberculosis; test: Compound was tested for inhibition of GTP hydrolysis at a concentration of 100 uM in Mycobacterium tuberculosis (Mtb); format: functional
[2] = tested on: Tubulin alpha chain (Homo sapiens); test: Percentage inhibition against human tubulin polymerization
[3] = tested on: Mycobacterium tuberculosis; test: Inhibitory dose required against Mycobacterium tuberculosis FtsZ polymerization; format: functional; conditions: read-out: ID50 (the source's name)
[4] = tested on: Mycobacterium tuberculosis; test: In vitro minimum inhibitory concentration (MIC) towardsMtb H37Ra was determined using a colorimetric (Alamar blue) microdilution broth assay; format: functional
[5] = biological target: Tubulin alpha chain (Sus scrofa) (UniProt P02550); test: Percentage inhibition against human tubulin polymerization; format: functional; conditions: concentration not given here
Sequence of Tubulin alpha chain (Sus scrofa) (P02550 whole entry, looked up): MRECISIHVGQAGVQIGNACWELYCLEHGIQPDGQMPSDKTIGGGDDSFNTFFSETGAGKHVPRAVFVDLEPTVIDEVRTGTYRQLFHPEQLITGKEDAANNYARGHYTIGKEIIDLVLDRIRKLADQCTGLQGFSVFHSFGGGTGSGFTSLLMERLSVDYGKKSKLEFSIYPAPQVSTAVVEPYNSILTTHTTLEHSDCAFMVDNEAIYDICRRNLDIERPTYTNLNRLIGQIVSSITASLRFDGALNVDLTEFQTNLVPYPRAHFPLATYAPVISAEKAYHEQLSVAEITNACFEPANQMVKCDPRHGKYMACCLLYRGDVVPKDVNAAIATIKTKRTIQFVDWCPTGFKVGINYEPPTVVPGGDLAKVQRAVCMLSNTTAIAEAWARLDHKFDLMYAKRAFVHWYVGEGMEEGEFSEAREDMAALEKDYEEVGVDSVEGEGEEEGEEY

SMILES	Hydrolysis [1]	inhibition [2]	IC50 [3]	MIC [4]	inhibition [5]
CCOC(=O)Nc1cc(NC(C)CCCN(CC)CC)c2nc(-c3ccccc3)c(-c3ccccc3)nc2n1 (stereo not drawn)	35%	No inhibition	34.2 µM	> 0.25 mg/L	–
CCOC(=O)Nc1nc(NC(C)CCCN(CC)CC)c2nc(-c3ccccc3)c(-c3ccccc3)nc2n1 (stereo not drawn)	23%	–	38.1 µM	2 mg/L (≈ 3.79 µM)	24%
